Source: patent US20200002377A1, “COMPOUNDS USEFUL FOR THE TREATMENT AND/OR CARE OF THE SKIN, HAIR, NAILS AND/OR MUCOUS MEMBRANES” (LUBRIZOL ADVANCED MATERIALS, INC., priority 2016, published 2020)
Residues, ends and D or L forms follow the SMILES beside them. *: point of attachment. Myristoyl = CCCCCCCCCCCCCC(=O)*

Experiments:
[1] = system: Staphylococcus epidermidis; experiment: Adherence of Staphylococcus epidermidis in keratinocytes (HaCaT) in competition with S. aureus bioparticles; assay type: cell-based; details: 50 μg/ml, 24 h, basal = 0
Experimental: After that treatment, cells are washed with phosphate-buffered saline (PBS, Sigma) and are then incubated with a solution of Staphylococcus epidermidis (ATCC®12228™, Culture Collections) treated with green-fluorescence calcein AM (Life technologic) and Alexa Fluor 594™ Bioparticles Staphylococcus aureus (ThermoFisher) in PBS for 30 minutes at 37° C. and protected from light. At the end of the incubation period, cells are washed with PBS and fixed in 4% (v/v) paraformaldehyde (PFA, Sigma) for 30 minutes. After rinsing with PBS, the nuclei are stained with Hoechst 33342, trihydrochloride trihydrate (ThermoFisher) in PBS for 10 minutes before analysis.
Cellular imaging is performed by fluorescence microscopy using the Operetta® High Content Imaging System (PerkinElmer). From each fluorescence image, Staphylococcus epidermidis is quantified as a number of spots and normalized against the number of keratinocyte nuclei and the total bacteria number (understood as the addition of detected S. epidermidis spots and S. aureus bioparticles). Each value obtained is normalized respect to basal conditions (non-treated keratinocytes). An image is taken in three different fields per well. 12 representative images from each condition are analyzed with Harmony software (PerkinElmer).
The normalized percentage of Staphylococcus epidermidis respect to basal conditions in treated keratinocytes is represented in Table 17.

[2] = system: Nuclear Factor Kappa B subunit 1 (NFKB1); experiment: Innate immune response gene expression in HEKa, real time PCR array; assay type: cell-based, human; details: 50 μg/ml, 24 h
Experimental: HEKa cells (Life Technologies) are seeded at 6.0×10^5 cells/well in 6-well plates and incubated in culture medium Epillfe™ with defined Growth Supplement (EDGS, Life Technologies), at 37° C. in a water-saturated atmosphere of 95% air and 5% CO2. After 24 hours of incubation under these conditions, medium is removed and cells are incubated with 50 μg/ml (w/v) of a peptide of the invention (see Table 16) in fresh culture medium keeping two wells where HEKa cells are incubated with medium only (basal conditions) at 37° C. and 5% CO2.
After 24 h of incubation, the cells are lysed directly in the wells following the protocol described on the RNeasy™ Mini kit (Qiagen) according to the manufacturer's protocol. The lysed cells are homogenized and the RNases are inactivated. The genomic DNA is removed from the samples by using gDNA Eliminator spin columns (Qiagen). Then the samples are passed through special RNA binding columns (Qiagen) and, after several microcentrifugation washes to eliminate contaminants and impurities, the purified RNA is eluted with 50 μl of ultrapure water. Quantification and analysis of purity of RNA samples are performed after RNA elution with a biophotometer (Eppendorf). 1 μg of high-quality RNA is retrotranscribed with iScript™ advanced (BioRad) in a final volume of 20 μl·Complete reaction mix is incubated in a thermal cycler (Eppendorf) at 42° C. for 30 minutes, and the reactions are stopped at 85° C. for 5 minutes. Complementary DNA is amplified by qPCR in a real-time PCR thermocycler (BioRad) using SYBR®Green supermix (BioRad) and a customized plate for use with SYBR®Green (BioRad). SYBR®Green binds to double-stranded DNA molecules and emits fluorescence which is quantified and is proportional to the amount of the product in the PCR reaction. Cycling conditions in BioRad CFX96™ instrument are 95° C. for 3 minutes, followed by 40 cycles of denaturing at 95° C. for 5 seconds, annealing and elongation at 60° C. for 30 seconds. GAPDH (Glyceraldehyde 3-phosphate dehydrogenase), TBP (TATA box binding protein) and HRPT1 (hypoxanthine phosphoribosyltransferase 1) are used as endogenous controls. Fold change relative to the expression of the sample genes and reference genes is calculated using normalized expression (ΔΔ(Ct)) method with default threshold values using CFX Manager Software (BioRad).
Genes analyzed are Chemokine (C-C motif) Ligand 5 (CCL5), Myeloid Differentiation primary response gene 88 (MyD88), Nuclear Factor Kappa B subunit 1 (NFKB1) and interferon Regulatory Factor 3 (IRF3).

| Compound | S. epidermidis (%), normalized percentage respect to basal conditions [1] [%] | NFKB1 fold induction respect to basal conditions [2] |
| --- | --- | --- |
| CCCCCCCCCCCCCC(=O)N[C@@H](CCC(=O)O)C(=O)N[C@@H](CCC(=O)O)C(=O)N[C@@H](CCSC)C(=O)N[C@@H](CCC(N)=O)C(=O)N[C@@H](CCCNC(=N)N)C(=O)N[C@@H](CCCCN)C(N)=O [PEP-60, Myr-Glu-Glu-Met-Gln-Arg-Lys-NH2] (Myristoyl-EEMQRK-NH2) | 24.84 | 1.26 |
| Ac-DEMERRA-NH2 [PEP-40, Ac-Asp-Glu-Met-Glu-Arg-Arg-Ala-NH2] | 20.56 | 2.55 |
| Ac-DEMQRR-NH2 [PEP-51, Ac-Asp-Glu-Met-Gln-Arg-Arg-NH2] | 65.15 | 2.41 |
| Ac-DEMQRRAD-NH2 [PEP-8, Ac-Asp-Glu-Met-Gln-Arg-Arg-Ala-Asp-NH2] | 20.45 | 2.04 |
| Ac-EDMQRR-NH2 [PEP-49, Ac-Glu-Asp-Met-Gln-Arg-Arg-NH2] | 5.86 | 1.55 |
| Ac-EEIERR-NH2 [PEP-55, Ac-Glu-Glu-Ile-Glu-Arg-Arg-NH2] | 2.41 | 3.39 |
| Ac-EELQRRAD-NH2 [PEP-10, Ac-Glu-Glu-Leu-Gln-Arg-Arg-Ala-Asp-NH2] | 11.54 | 2.46 |
| Ac-EEMDRRA-NH2 [PEP-42, Ac-Glu-Glu-Met-Asp-Arg-Arg-Ala-NH2] | 12.36 | 2.70 |
| Ac-EEMDRRAD-NH2 [PEP-13, Ac-Glu-Glu-Met-Asp-Arg-Arg-Ala-Asp-NH2] | 21.79 | 2.60 |
| Ac-EEMERR-NH2 [PEP-47, Ac-Glu-Glu-Met-Glu-Arg-Arg-NH2] | 2.91 | 2.12 |
| Ac-EEMERRA-NH2 [PEP-39, Ac-Glu-Glu-Met-Glu-Arg-Arg-Ala-NH2] | 71.97 | 2.62 |
| Ac-EEMERRAD-NH2 [PEP-11, Ac-Glu-Glu-Met-Glu-Arg-Arg-Ala-Asp-NH2] | 4.24 | 2.63 |
| Ac-EEMERRAD-OH [PEP-31, Ac-Glu-Glu-Met-Glu-Arg-Arg-Ala-Asp-OH] | 29.41 | 2.24 |
| Ac-EEMNRR-NH2 [PEP-48, Ac-Glu-Glu-Met-Asn-Arg-Arg-NH2] | 18.02 | 1.48 |
| Ac-EEMNRRAD-NH2 [PEP-12, Ac-Glu-Glu-Met-Asn-Arg-Arg-Ala-Asp-NH2] | 14.00 | 2.58 |
| Ac-EEMQKK-NH2 [PEP-54, Ac-Glu-Glu-Met-Gln-Lys-Lys-NH2] | 10.91 | 2.15 |
| Ac-EEMQKR-NH2 [PEP-46, Ac-Glu-Glu-Met-Gln-Lys-Arg-NH2] | 3.97 | 2.03 |
| Ac-EEMQRHAD-NH2 [PEP-20, Ac-Glu-Glu-Met-Gln-Arg-His-Ala-Asp-NH2] | 16.66 | 2.71 |
| Ac-EEMQRK-NH2 [PEP-45, Ac-Glu-Glu-Met-Gln-Arg-Lys-NH2] | 5.48 | 2.21 |

| Compound | S. epidermidis (%), normalized percentage respect to basal conditions [1] [%] | NFKB1 fold induction respect to basal conditions [2] |
| --- | --- | --- |
| Ac-EEMQRK-OH [PEP-62, Ac-Glu-Glu-Met-Gln-Arg-Lys-OH] | 6.78 | 1.40 |
| Ac-EEMQRRAD-OH [PEP-4, Ac-Glu-Glu-Met-Gln-Arg-Arg-Ala-Asp-OH] | 25.36 | 2.55 |
| Ac-EEMQRRAE-NH2 [PEP-17, Ac-Glu-Glu-Met-Gln-Arg-Arg-Ala-Glu-NH2] | 11.33 | 2.32 |
| Ac-EEMQRRAN-NH2 [PEP-18, Ac-Glu-Glu-Met-Gln-Arg-Arg-Ala-Asn-NH2] | 26.35 | 2.69 |
| Ac-EEMQRRAQ-NH2 [PEP-19, Ac-Glu-Glu-Met-Gln-Arg-Arg-Ala-Gln-NH2] | 81.69 | 2.73 |
| Ac-EEMQRRG-NH2 [PEP-38, Ac-Glu-Glu-Met-Gln-Arg-Arg-Gly-NH2] | 49.00 | 2.40 |
| Ac-EEMQRRGD-NH2 [PEP-16, Ac-Glu-Glu-Met-Gln-Arg-Arg-Gly-Asp-NH2] | 51.11 | 2.47 |
| Ac-EEMQRRKD-NH2 [PEP-24, Ac-Glu-Glu-Met-Gln-Arg-Arg-Lys-Asp-NH2] | 10.41 | 2.46 |
| Ac-EEMQRRPD-NH2 [PEP-22, Ac-Glu-Glu-Met-Gln-Arg-Arg-Pro-Asp-NH2] | 81.90 | 2.69 |
| Ac-EEMQRRS-NH2 [PEP-37, Ac-Glu-Glu-Met-Gln-Arg-Arg-Ser-NH2] | 7.49 | 2.88 |
| Ac-EEMQRRSD-NH2 [PEP-15, Ac-Glu-Glu-Met-Gln-Arg-Arg-Ser-Asp-NH2] | 15.10 | 2.57 |
| Ac-EEMQRRT-NH2 [PEP-41, Ac-Glu-Glu-Met-Gln-Arg-Arg-Thr-NH2] | 35.69 | 2.71 |
| Ac-EEMQRRTD-NH2 [PEP-21, Ac-Glu-Glu-Met-Gln-Arg-Arg-Thr-Asp-NH2] | 16.21 | 2.39 |
| Ac-NEMQRRA-NH2 [PEP-43, Ac-Asn-Glu-Met-Gln-Arg-Arg-Ala-NH2] | 30.17 | 2.56 |
| Ac-QEMQRRAD-NH2 [PEP-9, Ac-Gln-Glu-Met-Gln-Arg-Arg-Ala-Asp-NH2] | 21.36 | 2.66 |
| Ac-QEMQRRAD-OH [PEP-32, Ac-Gln-Glu-Met-Gln-Arg-Arg-Ala-Asp-OH] | 13.89 | 2.56 |
| H-EEMQRR-NH2 [PEP-56, H-Glu-Glu-Met-Gln-Arg-Arg-NH2] | 15.75 | 1.90 |
| H-EEMQRRAE-NH2 [PEP-26, H-Glu-Glu-Met-Gln-Arg-Arg-Ala-Glu-NH2] | 18.10 | 2.55 |
